The target of one data set is T1, CYP1A2 (Homo sapiens, UniProt P05177).
T1 sequence (P05177 1-516): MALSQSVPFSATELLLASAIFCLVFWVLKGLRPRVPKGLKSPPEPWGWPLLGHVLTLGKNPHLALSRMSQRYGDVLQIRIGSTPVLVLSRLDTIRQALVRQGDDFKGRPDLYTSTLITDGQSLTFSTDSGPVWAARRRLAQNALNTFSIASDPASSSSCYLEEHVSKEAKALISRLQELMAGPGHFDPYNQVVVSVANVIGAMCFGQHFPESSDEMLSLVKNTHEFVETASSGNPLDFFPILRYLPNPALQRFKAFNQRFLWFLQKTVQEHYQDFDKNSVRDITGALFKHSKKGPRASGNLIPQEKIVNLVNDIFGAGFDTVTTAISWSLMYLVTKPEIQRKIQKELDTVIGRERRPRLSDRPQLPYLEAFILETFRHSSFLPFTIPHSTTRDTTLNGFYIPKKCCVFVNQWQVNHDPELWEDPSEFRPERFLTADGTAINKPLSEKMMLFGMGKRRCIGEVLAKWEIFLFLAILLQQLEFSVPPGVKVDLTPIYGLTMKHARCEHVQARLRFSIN
Particulars: ref 35 von Moltke et al.; cited from earlier work.

In a further data set the test system is CYP3A. As to conditions: ref 35 von Moltke et al.; cited from earlier work.
The next data set concerns the target CYP2C9 (Homo sapiens, UniProt P11712). Particulars: ref 35 von Moltke et al.; cited from earlier work.
A further data set deals with CYP2D6 (Homo sapiens, UniProt P10635). Particulars: CYP2D6‐dependent dextromethorphan O‐demethylation; ref 35 von Moltke et al.; cited from earlier work.
Chain of CYP2D6 (P10635 whole entry): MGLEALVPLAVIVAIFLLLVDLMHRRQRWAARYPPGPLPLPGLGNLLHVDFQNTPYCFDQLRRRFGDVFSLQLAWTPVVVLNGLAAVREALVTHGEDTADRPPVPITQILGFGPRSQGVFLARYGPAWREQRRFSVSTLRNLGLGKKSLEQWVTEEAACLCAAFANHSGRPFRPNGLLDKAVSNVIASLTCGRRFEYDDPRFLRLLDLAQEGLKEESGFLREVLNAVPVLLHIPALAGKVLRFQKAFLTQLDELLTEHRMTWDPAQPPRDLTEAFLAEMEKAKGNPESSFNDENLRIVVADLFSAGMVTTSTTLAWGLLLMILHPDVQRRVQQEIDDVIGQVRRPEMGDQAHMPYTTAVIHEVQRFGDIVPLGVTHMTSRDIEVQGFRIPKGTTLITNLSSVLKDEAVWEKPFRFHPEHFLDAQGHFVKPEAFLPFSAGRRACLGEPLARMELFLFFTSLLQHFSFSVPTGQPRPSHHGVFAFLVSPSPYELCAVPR
For another data set, the system named is CYP1A2 mRNA. The experiment in a line: CYP450 induction in cultured human hepatocytes, mRNA by qRT-PCR. The format is cell-based. Particulars: human, hepatocytes, 3 days, 50 μM. The protocol: Each PCR was performed in triplicate.
In general terms: Real-time PCR tracks product formation cycle by cycle.

Chain of CYP2C9 (P11712 whole entry): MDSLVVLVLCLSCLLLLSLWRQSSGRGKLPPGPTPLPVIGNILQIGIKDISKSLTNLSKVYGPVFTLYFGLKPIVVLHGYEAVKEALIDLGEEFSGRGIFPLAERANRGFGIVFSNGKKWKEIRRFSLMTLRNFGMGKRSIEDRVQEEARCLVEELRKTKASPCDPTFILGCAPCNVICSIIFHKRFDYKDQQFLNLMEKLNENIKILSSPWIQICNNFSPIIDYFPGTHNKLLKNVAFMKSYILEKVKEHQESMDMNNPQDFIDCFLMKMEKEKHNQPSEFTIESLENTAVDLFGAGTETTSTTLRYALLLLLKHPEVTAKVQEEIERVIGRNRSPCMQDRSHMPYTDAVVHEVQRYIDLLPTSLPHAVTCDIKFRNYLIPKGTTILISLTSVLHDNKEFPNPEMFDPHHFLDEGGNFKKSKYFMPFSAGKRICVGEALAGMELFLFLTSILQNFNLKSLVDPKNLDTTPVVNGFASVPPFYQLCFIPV

`CCN[C@H](C)Cc1cccc(C(F)(F)F)c1` [L‐FFA]: the inhibitor potential entry at CYP1A2, in the data set on CYP3A and on CYP2C9 was “weak or negligible inhibitor potential” in each case. Besides, on CYP2D6, the IC50 (in general, the concentration that gives 50% inhibition) was 15.1 µM.
On to `CCN[C@@H](C)Cc1cccc(C(F)(F)F)c1` [D‐FFA], for which the inhibitor potential result at CYP1A2, with CYP3A and on CYP2C9 was “weak or negligible inhibitor potential” in each case. At CYP2D6, the IC50 was 15.1 µM.
Turning to `COc1ccc2[nH]c([S+]([O-])Cc3ncc(C)c(OC)c3C)nc2c1` (stereo not drawn) [Omeprazole, omeprazole, reference compound], the “increase in CYP1A2 mRNA levels” value with CYP1A2 mRNA was 32.7-52.5 fold.

The values are drawn from paper PMC9124818 (Pharmacology Research & Perspectives, 2022).
